Results reported in ChEMBL document CHEMBL4483862, “Open-source discovery of chemical leads for next-generation chemoprotective antimalarials” (2018).

Tested on: Plasmodium berghei
Test: Luciferase/luciferin-expressing antifolate-resistant parasites were used to infect a culture of HepG2 cells that were pre-incubated with compounds. Infected hepatocytes emit light due to the luciferase reaction. Assay results are presented as the percent inhibition of light emission compared to control. […]
Format: functional
Details: sporozoite; for IC90: read-out: LUCIFERASE INFECTION ASSAY - IC90

For `OC(c1ccc(Cl)c(F)c1)c1nc(-c2cccc(C(F)(F)F)c2)c[nH]1` (stereo not given), the IC50 (FFLUC_HILL_SLOPE 12.1, FFLUC_R_SQUARED 0.0756, read-out: LUCIFERASE INFECTION ASSAY - IC50) was > 8.9 µM and the IC90 was > 8.9 µM.
In the case of `Cc1cc(-c2onc(C)c2C(=O)Sc2ccccc2)no1`, the IC50 (FFLUC_HILL_SLOPE 12.1, FFLUC_R_SQUARED 0.567, PBLUC_HILL_SLOPE 1.05, PBLUC_R_SQUARED 0.41, read-out: LUCIFERASE INFECTION ASSAY - IC50) is reported as > 11 µM and the IC90 is reported as > 11 µM.
`Oc1c(C(Nc2ncccn2)c2ccc(F)cc2)ccc2cccnc12` (stereo not given) was tested, and the IC50 (FFLUC_HILL_SLOPE 12.3, FFLUC_R_SQUARED 0.0325, HEPG2TOX_HILL_SLOPE 1.16, HEPG2TOX_R_SQUARED 0.848, PBLUC_HILL_SLOPE 14, PBLUC_R_SQUARED 0.306, read-out: LUCIFERASE INFECTION ASSAY - IC50) was 3.03 µM and the IC90 was 3.55 µM.
In the case of `CCOC(=O)c1c(C)[nH]c(C(=O)Nc2nc(-c3c(C)cc(C)cc3C)cs2)c1C`, the IC50 (FFLUC_HILL_SLOPE 12.1, FFLUC_R_SQUARED 0.461, HEPG2TOX_HILL_SLOPE 1.22, HEPG2TOX_R_SQUARED 0.98, PBLUC_HILL_SLOPE 1.25, PBLUC_R_SQUARED 0.783, read-out: LUCIFERASE INFECTION ASSAY - IC50) is reported as 1.65 µM and the IC90 is reported as 9.66 µM.
`O=C(COc1ccccc1C(=O)Nc1ccccc1)NC(c1ccc(F)cc1)c1cccs1` (stereo not given) was tested, and the IC50 (FFLUC_HILL_SLOPE 12.2, FFLUC_R_SQUARED 0.17, PBLUC_HILL_SLOPE 2.56, PBLUC_R_SQUARED 0.393, read-out: LUCIFERASE INFECTION ASSAY - IC50) was 7.16 µM and the IC90 was > 10 µM.
For `Cc1cccc(N/N=C2\C=NN=C2c2ccc(Br)cc2)c1`, the IC50 (FFLUC_HILL_SLOPE 12.3, FFLUC_R_SQUARED 0.435, HEPG2TOX_HILL_SLOPE 0.345, HEPG2TOX_R_SQUARED 0.819, PBLUC_HILL_SLOPE 10.9, PBLUC_R_SQUARED 0.46, read-out: LUCIFERASE INFECTION ASSAY - IC50) was 9.21 µM and the IC90 was > 9.67 µM.
In the case of `c1ccc2c3c(ccc2c1)CCc1ccc2ccccc2c1-3`, the IC50 (FFLUC_HILL_SLOPE 12.1, FFLUC_R_SQUARED 0.622, read-out: LUCIFERASE INFECTION ASSAY - IC50) is reported as > 11.8 µM and the IC90 is reported as > 11.8 µM.
In the case of `COc1ccc(N(Cc2cn(-c3ccccc3)nc2-c2ccc(Cl)cc2)S(=O)(=O)c2ccccc2)cc1`, the IC50 (FFLUC_HILL_SLOPE 12.1, FFLUC_R_SQUARED 0.616, PBLUC_HILL_SLOPE 4, PBLUC_R_SQUARED 0.331, read-out: LUCIFERASE INFECTION ASSAY - IC50) is reported as 7.59 µM and the IC90 is reported as > 10 µM.
Compound `CCN(C(=O)CSc1nc2ccccc2c(=O)n1-c1ccc(C(C)C)cc1)c1cccc2ccccc12` has an IC50 (FFLUC_HILL_SLOPE 12.2, FFLUC_R_SQUARED 0.564, PBLUC_HILL_SLOPE 2.95, PBLUC_R_SQUARED 0.421, read-out: LUCIFERASE INFECTION ASSAY - IC50) of 4.55 µM and an IC90 of 9.59 µM.
`O=c1c2c3c(sc2nc(SCc2cc(=O)n4ccsc4n2)n1-c1ccccc1C(F)(F)F)CCCCC3` was tested, and the IC50 (FFLUC_HILL_SLOPE 12.2, FFLUC_R_SQUARED 0.743, read-out: LUCIFERASE INFECTION ASSAY - IC50) was > 10 µM and the IC90 was > 10 µM.
With `Cc1c(OCC(=O)NCc2ccccn2)ccc2c1oc(=O)c1ccccc12` the IC50 (FFLUC_HILL_SLOPE 12.1, FFLUC_R_SQUARED 0.777, PBLUC_HILL_SLOPE 13, PBLUC_R_SQUARED 0.252, read-out: LUCIFERASE INFECTION ASSAY - IC50) was 8.19 µM and the IC90 was > 8.81 µM.
Work on `COc1ccc(/N=c2\scc(-c3ccc(OC(F)F)cc3)n2/N=C/c2ccccc2[N+](=O)[O-])cc1` yielded an IC50 (FFLUC_HILL_SLOPE 12.1, FFLUC_R_SQUARED 0.633, PBLUC_HILL_SLOPE 109, PBLUC_R_SQUARED 0.183, read-out: LUCIFERASE INFECTION ASSAY - IC50) of 7.2 µM and an IC90 of 7.35 µM.
In the case of `COc1cc(N(CC(=O)Nc2ccc(Cl)cc2)S(=O)(=O)c2ccc(Cl)cc2)c(Cl)cc1Cl`, the IC50 (FFLUC_HILL_SLOPE 12.3, FFLUC_R_SQUARED 0.349, HEPG2TOX_HILL_SLOPE 3.41, HEPG2TOX_R_SQUARED 0.407, PBLUC_HILL_SLOPE 12, PBLUC_R_SQUARED 0.0202, read-out: LUCIFERASE INFECTION ASSAY - IC50) is reported as 5.6 µM and the IC90 is reported as > 6.18 µM.
In the case of `CC(C)(C)c1ccc(-c2nnc(SCc3ccc([N+](=O)[O-])cc3)n2-c2cccc(C(F)(F)F)c2)cc1`, the IC50 (FFLUC_HILL_SLOPE 12, FFLUC_R_SQUARED 0.571, HEPG2TOX_HILL_SLOPE 0.228, HEPG2TOX_R_SQUARED 0.238, read-out: LUCIFERASE INFECTION ASSAY - IC50) is reported as > 6.44 µM and the IC90 is reported as > 6.44 µM.
`CC(C)(C)c1cc(C(=O)OCC(=O)N2CCCc3ccccc32)cc(C(C)(C)C)c1` was tested, and the IC50 (FFLUC_HILL_SLOPE 12.2, FFLUC_R_SQUARED 0.329, PBLUC_HILL_SLOPE 3.02, PBLUC_R_SQUARED 0.491, read-out: LUCIFERASE INFECTION ASSAY - IC50) was 4.77 µM and the IC90 was 9.87 µM.
In the case of `CCOc1ccc(-n2c(SC(C)C(=O)c3ccc(C(C)C)cc3C(C)C)nnc2-c2c[nH]c3ccccc23)cc1` (stereo not given), the IC50 (FFLUC_HILL_SLOPE 12.2, FFLUC_R_SQUARED 0.489, PBLUC_HILL_SLOPE 1.92, PBLUC_R_SQUARED 0.281, read-out: LUCIFERASE INFECTION ASSAY - IC50) is reported as 5.8 µM and the IC90 is reported as > 10 µM.
`Cc1ccc(NS(=O)(=O)c2ccc(C(=O)Nc3ncccc3O)cc2)cc1C` showed an IC50 (FFLUC_HILL_SLOPE 12.3, FFLUC_R_SQUARED 0.189, HEPG2TOX_HILL_SLOPE 11.2, HEPG2TOX_R_SQUARED 0.187, PBLUC_HILL_SLOPE 1.78, PBLUC_R_SQUARED 0.764, read-out: LUCIFERASE INFECTION ASSAY - IC50) of 0.549 µM and an IC90 of 1.88 µM.
`COc1cc2c(cc1OC)C(c1cccs1)N(C(=O)CC1CCCC1)CC2` (stereo not given) was tested, and the IC50 (FFLUC_HILL_SLOPE 12.1, FFLUC_R_SQUARED 0.331, HEPG2TOX_HILL_SLOPE 1.22, HEPG2TOX_R_SQUARED 0.987, PBLUC_HILL_SLOPE 1.62, PBLUC_R_SQUARED 0.49, read-out: LUCIFERASE INFECTION ASSAY - IC50) was 2.88 µM and the IC90 was > 10 µM.
In the case of `CCCCn1c(N)c(N(C)CC(=O)Nc2scc(-c3ccccc3)c2C(=O)OCC)c(=O)[nH]c1=O`, the IC50 (FFLUC_HILL_SLOPE 12.3, FFLUC_R_SQUARED 0.419, PBLUC_HILL_SLOPE 4.64, PBLUC_R_SQUARED 0.375, read-out: LUCIFERASE INFECTION ASSAY - IC50) is reported as 5.15 µM and the IC90 is reported as 8.26 µM.
Work on `O=C1C(=O)N(Cc2ccccc2Cl)c2c1cccc2C(F)(F)F` yielded an IC50 (FFLUC_HILL_SLOPE 12, FFLUC_R_SQUARED 0.566, HEPG2TOX_HILL_SLOPE 13.8, HEPG2TOX_R_SQUARED 0.966, PBLUC_HILL_SLOPE 12.2, PBLUC_R_SQUARED 0.654, read-out: LUCIFERASE INFECTION ASSAY - IC50) of 3.09 µM and an IC90 of 3.7 µM.
In the case of `Nn1c(SCc2cc(F)cc3c2OC(c2ccccc2)OC3)nnc1-c1ccc(OC(F)F)cc1` (stereo not given), the IC50 (FFLUC_HILL_SLOPE 12.2, FFLUC_R_SQUARED 0.768, read-out: LUCIFERASE INFECTION ASSAY - IC50) is reported as > 10 µM and the IC90 is reported as > 10 µM.
With `O=C(CCc1ccc(-c2ccccc2)o1)Nc1nc(-c2ccccn2)cs1` the IC50 (FFLUC_HILL_SLOPE 12.1, FFLUC_R_SQUARED 0.705, read-out: LUCIFERASE INFECTION ASSAY - IC50) was > 10 µM and the IC90 was > 10 µM.
`Cc1ccc(N2C(=O)/C(=C\Nc3cc(Cl)ccc3[N+](=O)[O-])c3ccccc3C2=O)c(C)c1` was tested, and the IC50 (FFLUC_HILL_SLOPE 12.2, FFLUC_R_SQUARED 0.8, read-out: LUCIFERASE INFECTION ASSAY - IC50) was > 10 µM and the IC90 was > 10 µM.
With `CCc1cccc(CC)c1N(C(C)=O)c1nc(/C=C/C(=O)c2ccc3c(c2)OCCO3)cs1` the IC50 (FFLUC_HILL_SLOPE 12.1, FFLUC_R_SQUARED 0.466, HEPG2TOX_HILL_SLOPE 15.2, HEPG2TOX_R_SQUARED 0.81, PBLUC_HILL_SLOPE 12.5, PBLUC_R_SQUARED 0.644, read-out: LUCIFERASE INFECTION ASSAY - IC50) was 3.2 µM and the IC90 was 3.81 µM.
`CC(OC(=O)[C@@H](Nc1ccc(C(F)(F)F)cc1Cl)C(C)C)C(=O)NC(=O)NC1CCCCC1` (stereo not given in full) was tested, and the IC50 (FFLUC_HILL_SLOPE 12, FFLUC_R_SQUARED 0.576, PBLUC_HILL_SLOPE 4.18, PBLUC_R_SQUARED 0.859, read-out: LUCIFERASE INFECTION ASSAY - IC50) was 3.88 µM and the IC90 was 6.57 µM.
`CC1=C(C(=O)OCc2ccccc2)C(c2ccccc2OC(C)C)CC(=O)N1` (stereo not given) was tested, and the IC50 (FFLUC_HILL_SLOPE 12.1, FFLUC_R_SQUARED 0.679, read-out: LUCIFERASE INFECTION ASSAY - IC50) was > 8.7 µM and the IC90 was > 8.7 µM.
With `O=C(COc1ccc(Cl)cc1Br)c1ccc[nH]1` the IC50 (FFLUC_HILL_SLOPE 12.1, FFLUC_R_SQUARED 0.341, HEPG2TOX_HILL_SLOPE 8.8, HEPG2TOX_R_SQUARED 0.689, read-out: LUCIFERASE INFECTION ASSAY - IC50) was > 10 µM and the IC90 was > 10 µM.
`Cc1ccc(Br)c(NS(=O)(=O)c2cccc(C(=O)Nc3cccc4c[nH]nc34)c2)c1` was tested, and the IC50 (FFLUC_HILL_SLOPE 12.1, FFLUC_R_SQUARED 0.239, PBLUC_HILL_SLOPE 20.2, PBLUC_R_SQUARED 0.144, read-out: LUCIFERASE INFECTION ASSAY - IC50) was 9.98 µM and the IC90 was > 10 µM.
`Clc1ccccc1CN(Cc1nc2ccccc2[nH]1)Cc1nc2ccccc2[nH]1` showed an IC50 (FFLUC_HILL_SLOPE 12.2, FFLUC_R_SQUARED 0.134, HEPG2TOX_HILL_SLOPE 11.4, HEPG2TOX_R_SQUARED 0.932, PBLUC_HILL_SLOPE 13.3, PBLUC_R_SQUARED 0.326, read-out: LUCIFERASE INFECTION ASSAY - IC50) of 3.67 µM and an IC90 of 4.32 µM.
Compound `COc1ccc(-c2ccnn2-c2nc3ccccc3nc2C(F)(F)F)cc1` has an IC50 (FFLUC_HILL_SLOPE 12, FFLUC_R_SQUARED 0.622, HEPG2TOX_HILL_SLOPE 8.32, HEPG2TOX_R_SQUARED 0.411, PBLUC_HILL_SLOPE 4.15, PBLUC_R_SQUARED 0.462, read-out: LUCIFERASE INFECTION ASSAY - IC50) of 5.22 µM and an IC90 of 8.87 µM.
